Laboratory results as given in ChEMBL document CHEMBL5212743, “Selectivity Literature for EUbOPEN Chemogenomics Library wave 3” (2023).
pIC50, pKi: −log10 of the molar value.

Key:
[1] = target: T1, N-lysine methyltransferase KMT5A (Homo sapiens, UniProt Q9NQR1); experiment: Selectivity interaction (HMT panel) EUB0000194b SETD8
T1 sequence (Q9NQR1 whole entry): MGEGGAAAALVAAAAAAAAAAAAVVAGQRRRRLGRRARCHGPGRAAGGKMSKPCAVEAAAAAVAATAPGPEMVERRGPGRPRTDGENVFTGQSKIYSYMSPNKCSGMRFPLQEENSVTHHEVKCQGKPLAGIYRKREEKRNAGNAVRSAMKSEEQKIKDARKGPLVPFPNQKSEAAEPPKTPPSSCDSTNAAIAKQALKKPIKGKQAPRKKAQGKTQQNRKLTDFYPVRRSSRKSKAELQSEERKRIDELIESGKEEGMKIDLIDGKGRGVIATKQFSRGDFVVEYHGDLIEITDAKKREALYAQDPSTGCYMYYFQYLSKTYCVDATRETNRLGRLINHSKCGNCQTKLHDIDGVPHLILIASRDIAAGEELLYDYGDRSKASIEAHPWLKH

[2] = target: Histone-lysine N-methyltransferase SETDB1 (Homo sapiens, UniProt Q15047); experiment: Selectivity interaction (HMT panel) EUB0000194b SETDB1
[3] = target: Protein arginine N-methyltransferase 1 (Homo sapiens, UniProt Q99873); experiment: Selectivity interaction (HMT panel) EUB0000194b PRMT1
[4] = target: Histone-arginine methyltransferase CARM1 (Homo sapiens, UniProt Q86X55); experiment: Selectivity interaction (HMT panel) EUB0000194b CARM1
[5] = target: Histone-lysine N-methyltransferase EZH2 (Homo sapiens, UniProt Q15910); experiment: Selectivity interaction (HMT panel) EUB0000194b EZH2
[6] = target: Histone-lysine N-methyltransferase 2A (Homo sapiens, UniProt Q03164); experiment: Selectivity interaction (HMT panel) EUB0000194b MLL
[7] = target: Protein arginine N-methyltransferase 3 (Homo sapiens, UniProt O60678); experiment: Selectivity interaction (HMT panel) EUB0000194b PRMT3
[8] = target: Histone-lysine N-methyltransferase SUV39H2 (Homo sapiens, UniProt Q9H5I1); experiment: Selectivity interaction (HMT panel) EUB0000194b SUV39H2
[9] = target: Histone-lysine N-methyltransferase KMT5B (Homo sapiens, UniProt Q4FZB7); experiment: Selectivity interaction (HMT panel) EUB0000194b SUV420H1
[10] = target: Protein arginine N-methyltransferase 8 (Homo sapiens, UniProt Q9NR22); experiment: Selectivity interaction (HMT panel) EUB0000194b PRMT8
[11] = target: T2, Alpha-2C adrenergic receptor (Homo sapiens, UniProt P18825); experiment: Selectivity interaction (Enzyme panel (GPCRS, ion channels, and transporters)) EUB0000194b ADRA2C
T2 sequence (P18825 whole entry): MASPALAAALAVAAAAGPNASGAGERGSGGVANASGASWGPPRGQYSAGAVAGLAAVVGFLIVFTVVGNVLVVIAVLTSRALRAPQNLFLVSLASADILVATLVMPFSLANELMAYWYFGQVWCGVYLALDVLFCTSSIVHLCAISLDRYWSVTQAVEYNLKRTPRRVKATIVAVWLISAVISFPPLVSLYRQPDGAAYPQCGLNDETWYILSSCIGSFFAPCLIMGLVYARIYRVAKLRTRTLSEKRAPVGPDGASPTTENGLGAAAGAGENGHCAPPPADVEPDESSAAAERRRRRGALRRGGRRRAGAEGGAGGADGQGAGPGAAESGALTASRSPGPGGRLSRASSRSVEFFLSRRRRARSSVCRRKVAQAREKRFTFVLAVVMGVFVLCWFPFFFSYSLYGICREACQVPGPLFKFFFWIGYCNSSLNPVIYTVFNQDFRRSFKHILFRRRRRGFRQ

[12] = target: T3, Histone-lysine N-methyltransferase SETD7 (Homo sapiens, UniProt Q8WTS6); experiment: Selectivity interaction (HMT panel) EUB0000194b SETD7
T3 sequence (Q8WTS6 whole entry): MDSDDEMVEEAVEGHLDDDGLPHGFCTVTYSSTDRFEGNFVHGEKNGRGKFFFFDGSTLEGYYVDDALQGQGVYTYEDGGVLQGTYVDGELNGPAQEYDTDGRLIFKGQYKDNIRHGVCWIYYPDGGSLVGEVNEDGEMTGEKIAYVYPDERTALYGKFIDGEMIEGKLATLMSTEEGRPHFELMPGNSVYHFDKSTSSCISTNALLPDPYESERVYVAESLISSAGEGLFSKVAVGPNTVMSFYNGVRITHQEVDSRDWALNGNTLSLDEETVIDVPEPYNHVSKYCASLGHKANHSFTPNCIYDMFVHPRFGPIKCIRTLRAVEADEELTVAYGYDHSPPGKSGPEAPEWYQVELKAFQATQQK

[13] = target: Protein arginine N-methyltransferase 5 (Homo sapiens, UniProt O14744); experiment: Selectivity interaction (HMT panel) EUB0000194b PRMT5
[14] = target: Histone-lysine N-methyltransferase KMT5C (Homo sapiens, UniProt Q86Y97); experiment: Selectivity interaction (HMT panel) EUB0000194b SUV420H2
[15] = target: Sodium-dependent dopamine transporter (Homo sapiens, UniProt Q01959); experiment: Selectivity interaction (GPCR panel (PDSP screen)) EUB0000327a SLC6A3
[16] = target: Alpha-2A adrenergic receptor (Homo sapiens, UniProt P08913); experiment: Selectivity interaction (GPCR panel (PDSP screen)) EUB0000327a ADRA2A
Alpha-2A adrenergic receptor, sequence (P08913 whole entry): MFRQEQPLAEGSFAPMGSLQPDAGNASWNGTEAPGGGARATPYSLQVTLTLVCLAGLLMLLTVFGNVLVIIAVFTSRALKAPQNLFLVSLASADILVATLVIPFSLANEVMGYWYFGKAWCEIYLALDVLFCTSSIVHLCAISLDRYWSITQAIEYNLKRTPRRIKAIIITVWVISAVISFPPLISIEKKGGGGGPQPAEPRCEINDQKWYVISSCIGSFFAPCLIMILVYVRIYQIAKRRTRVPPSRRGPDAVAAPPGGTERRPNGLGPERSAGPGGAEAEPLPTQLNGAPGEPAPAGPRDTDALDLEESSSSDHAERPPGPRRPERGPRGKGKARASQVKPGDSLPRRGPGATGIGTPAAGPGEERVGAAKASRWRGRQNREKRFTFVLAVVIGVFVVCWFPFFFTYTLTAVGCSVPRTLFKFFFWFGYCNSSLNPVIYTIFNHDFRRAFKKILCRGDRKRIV

Histone-lysine N-methyltransferase EZH2, sequence (Q15910 whole entry): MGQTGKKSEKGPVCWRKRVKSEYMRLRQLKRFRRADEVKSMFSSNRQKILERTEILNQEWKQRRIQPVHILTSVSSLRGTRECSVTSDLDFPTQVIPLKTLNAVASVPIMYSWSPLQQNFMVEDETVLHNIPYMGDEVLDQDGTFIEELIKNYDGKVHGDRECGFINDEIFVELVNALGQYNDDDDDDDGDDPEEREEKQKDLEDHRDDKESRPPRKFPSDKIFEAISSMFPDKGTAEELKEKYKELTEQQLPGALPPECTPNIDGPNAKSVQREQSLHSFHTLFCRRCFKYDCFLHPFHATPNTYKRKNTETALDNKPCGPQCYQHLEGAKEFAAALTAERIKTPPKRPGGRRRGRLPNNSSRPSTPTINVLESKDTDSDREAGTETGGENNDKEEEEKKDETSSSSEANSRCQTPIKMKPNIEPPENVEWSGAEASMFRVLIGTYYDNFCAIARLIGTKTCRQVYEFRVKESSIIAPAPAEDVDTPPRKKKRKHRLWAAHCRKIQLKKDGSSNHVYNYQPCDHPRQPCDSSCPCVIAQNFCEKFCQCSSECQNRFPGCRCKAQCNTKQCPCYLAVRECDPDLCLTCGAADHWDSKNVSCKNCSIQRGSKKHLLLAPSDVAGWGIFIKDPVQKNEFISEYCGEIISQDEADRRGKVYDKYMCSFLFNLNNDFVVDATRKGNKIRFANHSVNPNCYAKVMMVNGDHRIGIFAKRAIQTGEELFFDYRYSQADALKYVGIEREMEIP
Protein arginine N-methyltransferase 1, sequence (Q99873 whole entry): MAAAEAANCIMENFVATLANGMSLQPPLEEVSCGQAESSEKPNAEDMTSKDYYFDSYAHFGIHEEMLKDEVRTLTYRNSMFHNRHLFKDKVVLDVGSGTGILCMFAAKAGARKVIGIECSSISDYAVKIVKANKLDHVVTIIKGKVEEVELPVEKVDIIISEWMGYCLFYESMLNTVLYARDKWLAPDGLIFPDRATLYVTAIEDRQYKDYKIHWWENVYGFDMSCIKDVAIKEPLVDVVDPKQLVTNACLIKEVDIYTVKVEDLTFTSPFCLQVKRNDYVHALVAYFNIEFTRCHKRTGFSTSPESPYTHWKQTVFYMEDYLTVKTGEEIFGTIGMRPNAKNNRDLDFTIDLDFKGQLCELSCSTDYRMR
Protein arginine N-methyltransferase 5, sequence (O14744 whole entry): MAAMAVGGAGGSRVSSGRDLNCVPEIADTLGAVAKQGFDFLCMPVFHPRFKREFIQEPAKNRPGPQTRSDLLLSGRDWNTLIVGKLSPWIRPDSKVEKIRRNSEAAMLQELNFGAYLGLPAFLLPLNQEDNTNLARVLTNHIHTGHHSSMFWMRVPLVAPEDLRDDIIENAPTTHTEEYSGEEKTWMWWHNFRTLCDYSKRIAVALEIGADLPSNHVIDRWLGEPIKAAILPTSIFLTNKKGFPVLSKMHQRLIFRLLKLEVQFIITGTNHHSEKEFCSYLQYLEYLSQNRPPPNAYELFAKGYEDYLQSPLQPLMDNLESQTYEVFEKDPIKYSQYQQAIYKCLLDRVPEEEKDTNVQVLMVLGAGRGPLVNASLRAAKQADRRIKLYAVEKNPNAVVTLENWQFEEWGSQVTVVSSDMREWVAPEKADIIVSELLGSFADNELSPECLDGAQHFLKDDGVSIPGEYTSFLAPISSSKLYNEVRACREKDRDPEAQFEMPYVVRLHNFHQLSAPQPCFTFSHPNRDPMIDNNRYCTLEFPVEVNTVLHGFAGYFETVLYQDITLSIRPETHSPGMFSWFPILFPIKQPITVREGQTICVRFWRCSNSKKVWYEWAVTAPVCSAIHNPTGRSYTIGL
Sodium-dependent dopamine transporter, sequence (Q01959 whole entry): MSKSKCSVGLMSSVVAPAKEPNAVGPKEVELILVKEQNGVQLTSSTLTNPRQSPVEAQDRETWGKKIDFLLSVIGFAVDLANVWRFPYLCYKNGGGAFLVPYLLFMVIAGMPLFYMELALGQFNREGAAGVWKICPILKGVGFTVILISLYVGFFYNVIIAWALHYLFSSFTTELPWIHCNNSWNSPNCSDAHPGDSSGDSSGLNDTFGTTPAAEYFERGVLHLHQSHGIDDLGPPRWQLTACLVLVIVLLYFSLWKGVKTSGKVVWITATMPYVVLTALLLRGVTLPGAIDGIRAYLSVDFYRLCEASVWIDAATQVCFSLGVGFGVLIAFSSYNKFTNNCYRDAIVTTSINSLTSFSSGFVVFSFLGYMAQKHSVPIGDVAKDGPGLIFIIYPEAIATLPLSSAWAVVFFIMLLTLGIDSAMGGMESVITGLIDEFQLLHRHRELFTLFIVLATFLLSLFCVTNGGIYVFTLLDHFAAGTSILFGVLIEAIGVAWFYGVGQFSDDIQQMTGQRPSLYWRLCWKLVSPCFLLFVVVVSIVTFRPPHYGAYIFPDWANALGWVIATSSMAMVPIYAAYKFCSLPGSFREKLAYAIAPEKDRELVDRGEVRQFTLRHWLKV
Protein arginine N-methyltransferase 3, sequence (O60678 whole entry): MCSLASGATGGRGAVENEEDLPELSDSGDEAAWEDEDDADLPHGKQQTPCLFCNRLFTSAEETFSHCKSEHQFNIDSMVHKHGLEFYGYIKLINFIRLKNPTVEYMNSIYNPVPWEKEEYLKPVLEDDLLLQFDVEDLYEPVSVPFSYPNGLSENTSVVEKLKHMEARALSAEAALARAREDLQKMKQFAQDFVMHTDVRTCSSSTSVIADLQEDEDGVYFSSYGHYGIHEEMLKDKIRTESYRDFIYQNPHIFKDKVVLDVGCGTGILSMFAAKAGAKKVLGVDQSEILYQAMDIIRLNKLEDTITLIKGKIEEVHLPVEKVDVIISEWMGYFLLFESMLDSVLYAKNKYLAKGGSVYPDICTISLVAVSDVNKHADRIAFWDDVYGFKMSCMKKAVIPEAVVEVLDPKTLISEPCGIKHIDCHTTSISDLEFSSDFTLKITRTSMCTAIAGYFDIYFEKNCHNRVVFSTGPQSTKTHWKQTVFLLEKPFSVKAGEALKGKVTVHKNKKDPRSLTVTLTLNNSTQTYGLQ
Histone-lysine N-methyltransferase KMT5B, sequence (Q4FZB7 whole entry): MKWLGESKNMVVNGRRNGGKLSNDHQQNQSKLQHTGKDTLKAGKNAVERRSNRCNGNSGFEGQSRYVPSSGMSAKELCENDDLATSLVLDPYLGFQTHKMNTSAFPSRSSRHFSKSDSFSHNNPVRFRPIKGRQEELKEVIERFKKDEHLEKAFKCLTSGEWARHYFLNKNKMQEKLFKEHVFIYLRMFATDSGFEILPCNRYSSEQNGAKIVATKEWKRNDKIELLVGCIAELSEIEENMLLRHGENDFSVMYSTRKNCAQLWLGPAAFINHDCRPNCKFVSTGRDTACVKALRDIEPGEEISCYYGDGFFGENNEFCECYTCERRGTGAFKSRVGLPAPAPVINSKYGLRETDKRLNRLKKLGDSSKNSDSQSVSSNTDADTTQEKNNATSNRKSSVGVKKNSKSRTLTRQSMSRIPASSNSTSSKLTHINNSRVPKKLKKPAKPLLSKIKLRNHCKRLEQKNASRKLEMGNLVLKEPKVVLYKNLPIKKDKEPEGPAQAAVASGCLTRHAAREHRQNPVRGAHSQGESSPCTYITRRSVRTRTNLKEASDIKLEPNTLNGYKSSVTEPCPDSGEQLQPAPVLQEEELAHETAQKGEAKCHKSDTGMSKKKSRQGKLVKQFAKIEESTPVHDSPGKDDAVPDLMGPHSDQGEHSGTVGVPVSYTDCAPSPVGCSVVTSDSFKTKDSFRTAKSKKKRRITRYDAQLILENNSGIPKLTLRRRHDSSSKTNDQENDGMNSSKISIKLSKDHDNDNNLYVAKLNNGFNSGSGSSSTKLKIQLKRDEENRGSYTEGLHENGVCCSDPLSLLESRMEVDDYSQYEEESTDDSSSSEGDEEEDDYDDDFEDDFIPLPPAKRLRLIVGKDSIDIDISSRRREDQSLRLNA
Histone-lysine N-methyltransferase KMT5C, sequence (Q86Y97 whole entry): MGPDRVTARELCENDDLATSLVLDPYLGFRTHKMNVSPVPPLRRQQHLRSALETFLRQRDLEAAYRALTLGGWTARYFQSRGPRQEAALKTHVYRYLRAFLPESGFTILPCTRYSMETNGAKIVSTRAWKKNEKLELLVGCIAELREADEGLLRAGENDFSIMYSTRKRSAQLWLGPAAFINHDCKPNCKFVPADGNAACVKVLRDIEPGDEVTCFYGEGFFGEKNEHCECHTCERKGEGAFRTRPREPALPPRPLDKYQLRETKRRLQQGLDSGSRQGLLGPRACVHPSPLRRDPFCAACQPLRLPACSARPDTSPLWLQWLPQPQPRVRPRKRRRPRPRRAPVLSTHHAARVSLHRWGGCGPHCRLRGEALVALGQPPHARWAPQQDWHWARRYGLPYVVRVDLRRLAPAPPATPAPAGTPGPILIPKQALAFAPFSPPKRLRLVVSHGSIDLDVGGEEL

COc1cc2c(NC3CCN(C(C)C)CC3)nc(N3CCC(F)(F)CC3)nc2cc1OCCCN1CCCC1
< 5.00: pIC50 [1] | pIC50 [2] | pIC50 [3] | pIC50 [4] | pIC50 [5] | pIC50 [6] | pIC50 [7] | pIC50 [8] | pIC50 [9] | pIC50 [10] | pKi [11] | pIC50 [12] | pIC50 [13] | pIC50 [14]

O=C(NNS(=O)(=O)c1ccccc1)c1cc(-c2ccnnc2)ccc1F [WM-2474]
< 5.00: pKi [15] | pKi [16]
